Converted amounts (≈) assume the structure as drawn. Read-outs that look alike come from different tables or passages of the source. Square brackets hold non-standard residues; d marks the D form. Ends that are not written are not given here. Peptide text beside a SMILES is read from it.
Tests used:
[1] = XTT proliferation (cytotoxicity) assay, normal fibroblasts; assay type: cell-based, mouse; conditions: mouse, NIH-3T3 normal mouse fibroblasts, read-out: Lethal Concentration (LC50)
Protocol: (§1) The CL1 human prostate carcinoma (PC) cell line is an androgen-independent (AI) subclone of LNCaP cell line, which was generated by culturing androgen-dependent (AD) LNCaP cells in charcoal-stripped, […], as described (Patel et al. 2000). 22RV1 human PC cells are AI sub-clones of the AD prostatic adenocarcinoma CWR22 xenograft (Sramkoski et al. 1999). CL1 and 22RV1 (ATCC, USA) were grown in RPMI-1640 supplemented with 10% FCS (Biological Industries, Beit Haemek, Israel). PC3 and DU145 are androgen-insensitive (AI) (non-responsive), invasive human prostate cancer cell lines. NIH-3T3 mouse fibroblast cell lines (ATCC, USA) were grown in DMEM supplemented with 10% BS. Murine Lewis lung carcinoma (LLC) cell lines were also grown in DMEM medium supplemented with 10% fetal calf serum and antibiotics under the same conditions as above.
(§2) The anticancer activity of the diastereomers 1, 5 and 11-16, 36-39, 42 and 44 was examined against human CL1 prostate cancer, murine LLC (Lewis lung carcinoma), DU 145 and PC3 cell lines. The cell selectivity of the diastereomeric peptides was also studied by examining their effect on NIH-3T3 normal mouse fibroblasts cell line.
(§3) A 96-well plate (Falcon) was used for the XTT proliferation assay. Cancer cells were grown for 24 hours (day 1) in RPMI-1640 medium ([…] cells/100 μl for LLC, CL1, 22RVI, DU 145 and PC3, respectively) supplemented with 10% fetal calf serum and antibiotics, at 37° C., in humidified atmosphere at 5% CO2 and 95% air, resulting in growth medium pH of 7.4. NIH-3T3 fibroblast cells (1×10^4 cells/100 μl) were grown in DMEM medium supplemented with 10% bovine calf serum and antibiotics under the same conditions as described above for the cancerous cells. Wells in the last two rows served as blanks (medium only, for measuring the background color of the medium) and 100% survival controls (cells and medium only without treatment), respectively.
(§4) In day 2, the peptides were dissolved in sterile PBS to a concentration of 200 μM (or 500 μM). The medium in the assay wells was replaced with 100 μl serum free medium. For the assays at pH 6, the medium was initially concentrated (×5 or ×10) and then diluted with double distilled water and addition of sodium carbonate. Before reaching the correct dilution, the medium was adjusted to pH 6 and then more water was added to reach the final dilution. The cells were grown in physiological pH, and the acidic pH was used only during the 24 hours incubation with the peptides. A sign for the correct acidity was a light yellow color of the medium. In line A of the plate, 160 μl of serum free medium was added, if the initial peptide concentration was 500 μM.
(§5) Peptide solutions, 100 μl (or 40 μl) were added to each assay well in line A, such that the final concentration of the peptide was […] and the volume 200 μl. The medium in the wells was mixed with multichannel pipette 5 times and 100 μl of it were transferred to the next row of wells (line B), to give a peptide concentration of 50 μM. The double dilution of the peptides continued downstream the plate in the same manner. The plates were then incubated for 24 h.
(§6) In day 3, XTT reaction solution was prepared by adding to 100 μl aliquots of activation solution (sodium 3′-[1-(phenyl-aminocarbonyl)-3,4-tetrazolium]-bis(4-methoxy-6-nitro) benzene sulfonic acid hydrate and N-methyl dibenzopyrazine methyl sulfate; mixed in a proportion of 50:1) (protected from light and kept in −20° C.), the substrate. 50 μl of XTT reaction solution were added to each well and the plates were incubated for 2 hours (37° C. and 5% CO2+95% air. In cases the incubation was not enough for the creation of the color, it was extended for up to 24 hours). The optical density was read at wavelength of 450 nm in an ELISA plate reader. Cell viability was determined relative to the control and final results were recorded. The results were confirmed using replications in at least three independent experiments. […]

[2] = Acute toxicity test in mice (intravenous); assay type: in vivo; conditions: for mortality: mice
Protocol: Acute toxicity of peptides 1, 13 and 16 was examined by intravenously injecting mice (n=3), each with one dose per day for 2 days of 0.5 ml solution containing peptides 1, 13 or 16 at 3, 9, 15, 20 and 30 mg/kg of body weight.
A week after injecting the peptides, blood samples were taken from the survived mice. […] Thus, the peptides 13 and 16 of the invention are not toxic even when administered at concentrations considerably higher than those necessary for their anticancer activity.

[3] = test system: DU145 human prostate cancer cell line; assay: XTT proliferation (cytotoxicity) assay, DU145; assay type: cell-based
Protocol: as §1, §2, §3, §4, §5, §6

[4] = test system: Murine Lewis lung carcinoma (LLC) cell line; assay: XTT proliferation (cytotoxicity) assay, LLC; assay type: cell-based
Protocol: as §1, §2, §3, §4, §5, §6

22RV1 human PC cells = assay: XTT proliferation (cytotoxicity) assay, 22RV1; assay type: cell-based
Protocol: as §1, §3, §4, §5
In day 3, XTT reaction solution was prepared by adding to 100 μl aliquots of activation solution (sodium 3′-[1-(phenyl-aminocarbonyl)-3,4-tetrazolium]-bis(4-methoxy-6-nitro) benzene sulfonic acid hydrate and N-methyl dibenzopyrazine methyl sulfate; mixed in a proportion of 50:1) (protected from light and kept in −20° C.), the substrate. 50 μl of XTT reaction solution were added to each well and the plates were incubated for 2 hours (37° C. and 5% CO2+95% air. In cases the incubation was not enough for the creation of the color, it was extended for up to 24 hours). The optical density was read at wavelength of 450 nm in an ELISA plate reader. Cell viability was determined relative to the control and final results were recorded. The results were confirmed using replications in at least three independent experiments. The LC50 for each peptide was obtained from the curve of cell viability versus concentration of peptide and taken from the concentration at which cell viability was 50%. The data shown in Table 1 are for only one experiment, but representative of all replications.

[5] = test system: CL1 human prostate carcinoma cell line; assay: XTT proliferation (cytotoxicity) assay, CL1; assay type: cell-based
Protocol: as §1, §2, §3, §4, §5, §6

[6] = test system: PC3 human prostate cancer cell line; assay: XTT proliferation (cytotoxicity) assay, PC3; assay type: cell-based; conditions: PC3, pH 7.4, 24 h
Protocol: as §1, §2
A 96-well plate (Falcon) was used for the XTT proliferation assay. Cancer cells were grown for 24 hours (day 1) in RPMI-1640 medium (5×10^3, 7×10^3, 1×10^4 and 7×10^3 cells/100 μl for LLC, CL1, 22RVI, DU 145 and PC3, respectively) supplemented with 10% fetal calf serum and antibiotics, at 37° C., in humidified atmosphere at 5% CO2 and 95% air, resulting in growth medium pH of 7.4. […]
In day 3, XTT reaction solution was prepared by adding to 100 μl aliquots of activation solution (sodium 3′-[1-(phenyl-aminocarbonyl)-3,4-tetrazolium]-bis(4-methoxy-6-nitro) benzene sulfonic acid hydrate and N-methyl dibenzopyrazine methyl sulfate; mixed in a proportion of 50:1) (protected from light and kept in −20° C.), the substrate. […] The optical density was read at wavelength of 450 nm in an ELISA plate reader. Cell viability was determined relative to the control and final results were recorded. […]

[7] = test system: NIH-3T3 normal mouse fibroblasts cell line; assay: XTT proliferation (cytotoxicity) assay, normal fibroblasts; assay type: cell-based; conditions: NIH3T3, pH 7.4, 24 h
Protocol: as §1, §2, §3, §4, §5, §6

[8] = Interaction with Matrigel matrix, analysed by RP-HPLC and mass spectroscopy; assay type: in vitro ADME; conditions: mixed with Matrigel matrix for one hour
[9] = test system: AI CL1 human PC cells xenograft; assay: Inhibition of tumor growth in human prostate cancer xenografts, CL1; assay type: in vivo, nude male mice; conditions: CL1 xenograft, 1 mg/kg intratumorally, 9 doses
Protocol: (§7) (i) Inhibition of tumor growth in human prostate cancer xenografts. Subcutaneouse (s.c.) implantation of human PC cells in mice was done as previously described in Gavish et al. (Gavish et al. 2002). Briefly, 0.1 ml AI CL1 or 22RV1 human PC cells (5×10^6 cells) in Matrigel were inoculated s.c. into the dorsal side of five to six week-old nude male mice weighing 20-25 g (Harlen Co., Israel). Two weeks after cell implantation, when the tumors diameter reached ≧5 mm (denoted as day 1), the diastereomer 13 and its all L-amino acid analog peptide (at 1 mg/kg, 0.1 mM), or vehicle (PBS, pH=7.4) were injected intratumorally (dosing volume of 2.5 ml/kg) three times a week for a total of 9 doses. Tumor size was measured by a caliper and recorded twice a week during a period of 28 days. Mice were weighed and tumor weight (mg) was estimated by using the formula of length×width×depth×0.52 in mm^3, assuming the specific gravity to be 1. At the end of the treatment, the mice were killed, and the tumors were removed, photographed, and weighed. The animal experimentation was conducted according to the rules of the Institutional Animal Care and Use Committee.

[10] = test system: 22RV1 human PC cells xenograft; assay: Inhibition of tumor growth in human prostate cancer xenografts, 22RV1; assay type: in vivo, nude male mice; conditions: 22RV1 xenograft, 1 mg/kg intratumorally, 9 doses
Protocol: as §7
Serum PSA levels. Four weeks after the first treatment, blood was withdrawn from the 22RV1-inoculated mice in order to determine the level of prostate specific antigen (PSA). The blood samples were taken directly to heparin containing tubes, centrifuged, and the supernatants were stored at −20° C. The CanAg PSA EIA kit (CanAg Diagnostics) was used to determine the total PSA in the mice plasma (Gavish et al., 2002). Tumor weight and PSA levels, represented as the mean±SE, were calculated from the raw data and then subjected to Student's t test. A value of P<0.05 was considered as statistically significant.

[11] = i.v., 3 mg/kg, one dose per day for 2 days
[12] = i.v., 9 mg/kg, one dose per day for 2 days
[13] = i.v., 15 mg/kg, one dose per day for 2 days
[14] = i.v., 20 mg/kg, one dose per day for 2 days

Row | Compound | CC50 at 24 h ([1]; NIH3T3, pH 6, 24 h) | mortality [2, 11] | mortality [2, 12] | mortality [2, 13] | mortality [2, 14] | Lethal Concentration (LC50) ([4]; pH 7.4, 24 h) | Lethal Concentration (LC50) (22RV1 human PC cells; 22RV1, pH 6, 24 h) | Lethal Concentration (LC50) ([5]; CL1, pH 7.4, 24 h) | further results
1 | CC(C)C[C@H](NC(=O)[C@H](CC(C)C)NC(=O)[C@@H](CCCCN)NC(=O)[C@H](CC(C)C)NC(=O)[C@H](CC(C)C)NC(=O)[C@H](CCCCN)NC(=O)[C@@H](CCCCN)NC(=O)[C@@H](CC(C)C)NC(=O)[C@H](CC(C)C)NC(=O)[C@@H](CCCCN)NC(=O)[C@H](CCCCN)NC(=O)[C@H](CC(C)C)NC(=O)[C@@H](CC(C)C)NC(=O)[C@H](CCCCN)NC(=O)[C@@H](N)CC(C)C)C(N)=O [Peptide 1, reference compound] (H-LK[dL]LK[dK]L[dL][dK]KLL[dK]LL-NH2) | 25 µg/mL (≈ 13.9 µM) | No mortality | No mortality | 100% | 100% | 12.5 µg/mL | 25 µg/mL | 6.25 µg/mL | CC50 at 24 h ([1]; NIH3T3, pH 7.4, 24 h): 50 µg/mL (≈ 27.7 µM); mortality ([2]; concentrations considerably higher than those necessary for anticancer activity): 100%; Lethal Concentration (LC50) ([3]; DU145, pH 6, 24 h): 4.7 µg/mL; Lethal Concentration (LC50) ([3]; DU145, pH 7.4, 24 h): 4.7 µg/mL; Lethal Concentration (LC50) ([4]; pH 6, 24 h): 12.5 µg/mL; Lethal Concentration (LC50) (22RV1 human PC cells; 22RV1, pH 7.4, 24 h): 12.5 µg/mL; Lethal Concentration (LC50) ([5]; CL1, pH 6, 24 h): 9.3 µg/mL; Lethal Concentration (LC50) [6]: 6.2 µg/mL
2 | CC(C)C[C@H](NC(=O)[C@H](CC(C)C)NC(=O)[C@@H](Cc1c[nH]cn1)NC(=O)[C@H](CC(C)C)NC(=O)[C@H](CC(C)C)NC(=O)[C@H](Cc1c[nH]cn1)NC(=O)[C@@H](Cc1c[nH]cn1)NC(=O)[C@@H](CC(C)C)NC(=O)[C@H](CC(C)C)NC(=O)[C@@H](CCCCN)NC(=O)[C@H](Cc1c[nH]cn1)NC(=O)[C@H](CC(C)C)NC(=O)[C@@H](CC(C)C)NC(=O)[C@H](Cc1c[nH]cn1)NC(=O)[C@@H](N)CC(C)C)C(N)=O [Peptide 16] (H-LH[dL]LH[dK]L[dL][dH]HLL[dH]LL-NH2) | 25 µg/mL (≈ 13.5 µM) | No mortality | No mortality | no mortality | no mortality | 50 µg/mL | 12.5 µg/mL | 12.5 µg/mL | Lethal Concentration (LC50) [7]: 100 µg/mL; mortality ([2]; i.v., 30 mg/kg, one dose per day for 2 days): No mortality; blood differential and biochemistry tests ([2]; survived mice, a week after injection): in the range of normal values; active concentration lower than against NIH-3T3 ([5]; CL1 vs NIH-3T3 at the same pH): at least two-fold lower
3 | LKLLHKLLKHLLKLL-NH2 [all L-amino acid analog peptide, reference compound] |  |  |  |  |  |  |  |  | activity preserved upon interaction with the Matrigel matrix [8]: fully inactivated; tumor weight [9]: inactive; tumor weight [10]: inactive

— patent US20090305954A1, “HISTIDINE-CONTAINING DIASTEREOMERIC PEPTIDES AND USES THEREOF” (Yeda Research and Development Co. Ltd., priority 2005, published 2009)
